# Where “and” joins values, the source holds several entries; their conditions need not be identical. Equal entries are not always repeated. Inconclusive results are not listed.
# System: nude mice, HT29 intrarenal xenograft, tumor weight T/C
# Assay: NCI In Vivo Anticancer Drug Screen. Data for tumor model HT29;CX-1 Human Adenocarcinoma (MER+) (intrarenal inoculation) in NU/NU Swiss (nude) mice
# Settings: endpoint: mean tumor weight change, higher = larger tumour
# Summary of the method: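 T/C = treated-group value ÷ vehicle-group value, using tumor size or survival.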
# [1] = dose: 25.0 mg/kg/injection, schedule: Q01DX010 (sc), vehicle: Klucel (hydroxypropylcellulose) (HPC)
# [2] = dose: 300.0 mg/kg/injection, schedule: Q04DX004 (sc), vehicle: saline
structure (smiles),measurement,setting,value
COc1cc(NS(C)(=O)=O)ccc1Nc1c2ccccc2nc2ccccc12,T/C,"dose: 0.38 mg/kg/injection, schedule: Q01DX010 (sc), vehicle: other",33 % of control
same,T/C,"dose: 0.75 mg/kg/injection, schedule: Q01DX010 (sc), vehicle: lactic acid",43 % of control
same,T/C,"dose: 0.75 mg/kg/injection, schedule: Q01DX010 (sc), vehicle: other",15 % of control
same,T/C,"dose: 0.78 mg/kg/injection, schedule: Q01DX010 (sc), vehicle: lactic acid",15 % of control
same,T/C,"dose: 1.5 mg/kg/injection, schedule: Q01DX010 (sc), vehicle: lactic acid",30 % of control
same,T/C,"dose: 1.5 mg/kg/injection, schedule: Q01DX010 (sc), vehicle: other",39 % of control
same,T/C,"dose: 3.0 mg/kg/injection, schedule: Q01DX010 (sc), vehicle: other",99 % of control
Cc1ccc2c(c1)C(=O)N(CC[P+](c1ccccc1)(c1ccccc1)c1ccccc1)C2=O,T/C,"dose: 3.13 mg/kg/injection, schedule: Q01DX010 (sc), vehicle: Klucel (hydroxypropylcellulose) (HPC)",70 % of control
same,T/C,"dose: 6.25 mg/kg/injection, schedule: Q01DX010 (sc), vehicle: Klucel (hydroxypropylcellulose) (HPC)",37 % of control
same,T/C,"dose: 12.5 mg/kg/injection, schedule: Q01DX010 (sc), vehicle: Klucel (hydroxypropylcellulose) (HPC)",86 % of control
same,T/C,[1],75 % of control
CC1=CC(=NN=c2cc(C)n([O-])c(C)c2)C=C(C)[N+]1=O,T/C,"dose: 100.0 mg/kg/injection, schedule: Q04DX004 (sc), vehicle: suspension in saline",73 % of control
same,T/C,"dose: 200.0 mg/kg/injection, schedule: Q04DX004 (sc), vehicle: suspension in saline",48 % of control
same,T/C,"dose: 400.0 mg/kg/injection, schedule: Q04DX004 (sc), vehicle: suspension in saline",40 % of control
same,T/C,"dose: 800.0 mg/kg/injection, schedule: Q04DX004 (sc), vehicle: suspension in saline",39 % of control
CCCCCCCCCCCC(=O)NC1CC(O[C@H]2C[C@](O)(C(=O)CO)Cc3c(O)c4c(c(O)c32)C(=O)c2c(OC)cccc2C4=O)OC(C)C1O (stereo not given in full),T/C,"dose: 100.0 mg/kg/injection, schedule: Q01DX010 (sc), vehicle: water",105 % of control
same,T/C,"dose: 200.0 mg/kg/injection, schedule: Q01DX010 (sc), vehicle: water",68 % of control
same,T/C,"dose: 400.0 mg/kg/injection, schedule: Q01DX010 (sc), vehicle: water",26 % of control
CC(C)CCCCCCCCCCCCC(=O)NCC(=O)NC1C(O)C(O)C(Nc2ncnc3nc[nH]c23)OC1C(O)CO (stereo not given),T/C,"dose: 0.75 mg/kg/injection, schedule: Q04DX004 (sc), vehicle: suspension in saline",85 % of control
same,T/C,"dose: 0.8 mg/kg/injection, schedule: Q01DX010 (sc), vehicle: saline",21 % of control and 24 % of control
same,T/C,"dose: 1.5 mg/kg/injection, schedule: Q04DX004 (sc), vehicle: suspension in saline",47 % of control
same,T/C,"dose: 3.0 mg/kg/injection, schedule: Q04DX004 (sc), vehicle: suspension in saline",10 % of control and 23 % of control
same,T/C,"dose: 6.0 mg/kg/injection, schedule: Q04DX004 (sc), vehicle: suspension in saline",15 % of control
Cc1c2cc[n+](CCN3CCCCC3)cc2c(C)c2c1[nH]c1ccc(O)cc12,T/C,"dose: 12.5 mg/kg/injection, schedule: Q04DX004 (sc), vehicle: suspension in saline",100 % of control
same,T/C,"dose: 25.0 mg/kg/injection, schedule: Q04DX004 (sc), vehicle: suspension in saline",108 % of control
same,T/C,"dose: 50.0 mg/kg/injection, schedule: Q04DX004 (sc), vehicle: suspension in saline",98 % of control
COC(=O)C(F)C(Br)C(=O)OC (stereo not given),T/C,"dose: 9.37 mg/kg/injection, schedule: Q04DX004 (sc), vehicle: saline with Tween-80",207 % of control
same,T/C,"dose: 18.75 mg/kg/injection, schedule: Q04DX004 (sc), vehicle: saline with Tween-80",68 % of control
same,T/C,"dose: 37.5 mg/kg/injection, schedule: Q04DX004 (sc), vehicle: saline with Tween-80",223 % of control
O=NN(CCCl)C(=O)Oc1ccc(OC(=O)N(CCCl)N=O)cc1,T/C,"dose: 37.5 mg/kg/injection, schedule: Q04DX004 (sc), vehicle: Klucel (hydroxypropylcellulose) (HPC)",44 % of control
same,T/C,"dose: 75.0 mg/kg/injection, schedule: Q04DX004 (sc), vehicle: Klucel (hydroxypropylcellulose) (HPC)",67 % of control
same,T/C,"dose: 150.0 mg/kg/injection, schedule: Q04DX004 (sc), vehicle: Klucel (hydroxypropylcellulose) (HPC)",29 % of control
same,T/C,"dose: 300.0 mg/kg/injection, schedule: Q04DX004 (sc), vehicle: Klucel (hydroxypropylcellulose) (HPC)",23 % of control
C=CCc1cn(C2CC(O)C(CO)O2)c(=O)[nH]c1=O (stereo not given),T/C,[2],71 % of control
same,T/C,"dose: 600.0 mg/kg/injection, schedule: Q04DX004 (sc), vehicle: saline",99 % of control
same,T/C,"dose: 1200.0 mg/kg/injection, schedule: Q04DX004 (sc), vehicle: saline",64 % of control
same,T/C,"dose: 2400.0 mg/kg/injection, schedule: Q04DX004 (sc), vehicle: saline",71 % of control
CC1(C)CC23C4COC(=O)C2CCC1C3CC4=O (stereo not given),T/C,"dose: 25.0 mg/kg/injection, schedule: Q04DX004 (sc), vehicle: DMSO",56 % of control
same,T/C,"dose: 50.0 mg/kg/injection, schedule: Q04DX004 (sc), vehicle: DMSO",106 % of control
same,T/C,"dose: 100.0 mg/kg/injection, schedule: Q04DX004 (sc), vehicle: DMSO",103 % of control
same,T/C,"dose: 300.0 mg/kg/injection, schedule: Q04DX004 (sc), vehicle: DMSO",56 % of control
same,T/C,"dose: 600.0 mg/kg/injection, schedule: Q04DX004 (sc), vehicle: DMSO",64 % of control
same,T/C,"dose: 1200.0 mg/kg/injection, schedule: Q04DX004 (sc), vehicle: DMSO",88 % of control
same,T/C,"dose: 2400.0 mg/kg/injection, schedule: Q04DX004 (sc), vehicle: DMSO",114 % of control
CN(C)CC(Cl)CCl (stereo not given),T/C,"dose: 75.0 mg/kg/injection, schedule: Q04DX004 (sc), vehicle: saline",101 % of control
same,T/C,"dose: 150.0 mg/kg/injection, schedule: Q04DX004 (sc), vehicle: saline",117 % of control
same,T/C,[2],50 % of control
C[C@]12CCC(=O)C=C1CC[C@@H]1[C@@H]2[C@@H](O)C[C@@]2(C)[C@H]1CC[C@]2(O)C(=O)CO,T/C,"dose: 600.0 mg/kg/injection, schedule: Q04DX004 (sc), vehicle: Klucel (hydroxypropylcellulose) (HPC)",18 % of control and 26 % of control
CC1CN=C(c2ccc(NC(=O)c3ccc(C(=O)Nc4ccc(C5=NCC(C)N5)cc4)cc3)cc2)N1 (stereo not given),T/C,[1],65 % of control
same,T/C,"dose: 50.0 mg/kg/injection, schedule: Q01DX010 (sc), vehicle: Klucel (hydroxypropylcellulose) (HPC)",34 % of control
same,T/C,"dose: 100.0 mg/kg/injection, schedule: Q01DX010 (sc), vehicle: Klucel (hydroxypropylcellulose) (HPC)",37 % of control
same,T/C,"dose: 200.0 mg/kg/injection, schedule: Q01DX010 (sc), vehicle: Klucel (hydroxypropylcellulose) (HPC)",44 % of control
CC(=O)Oc1ccccc1O,T/C,"dose: 75.0 mg/kg/injection, schedule: Q04DX004 (sc), vehicle: saline + Tween-80 + alcohol",79 % of control
same,T/C,"dose: 150.0 mg/kg/injection, schedule: Q04DX004 (sc), vehicle: saline + Tween-80 + alcohol",109 % of control
same,T/C,"dose: 300.0 mg/kg/injection, schedule: Q04DX004 (sc), vehicle: saline + Tween-80 + alcohol",119 % of control
O=C1C(NCC(O)CO)=C(N2CC2)C(=O)C(NCC(O)CO)=C1N1CC1 (stereo not given),T/C,"dose: 4.0 mg/kg/injection, schedule: Q04DX004 (sc), vehicle: saline",86 % of control
same,T/C,"dose: 8.0 mg/kg/injection, schedule: Q04DX004 (sc), vehicle: saline",28 % of control
same,T/C,"dose: 16.0 mg/kg/injection, schedule: Q04DX004 (sc), vehicle: saline",25 % of control
CC(=O)OC1C(O)C(C)OC(OC2C(OC(=O)C3CCC4C(C3)OC3(CC(OC(=O)/C=C/c5ccccc5)C(C)CO3)C43CO3)OC(C)C(O)C2OC(C)=O)C1O (stereo not given),T/C,"dose: 15.0 mg/kg/injection, schedule: Q04DX004 (sc), vehicle: distilled water + Tween-80",100 % of control
same,T/C,"dose: 30.0 mg/kg/injection, schedule: Q04DX004 (sc), vehicle: distilled water + Tween-80",62 % of control
same,T/C,"dose: 60.0 mg/kg/injection, schedule: Q04DX004 (sc), vehicle: distilled water + Tween-80",61 % of control
same,T/C,"dose: 120.0 mg/kg/injection, schedule: Q04DX004 (sc), vehicle: distilled water + Tween-80",91 % of control
C[N+](C)(C)c1ncnc2c1ncn2C1CCCO1 (stereo not given),T/C,"dose: 6.25 mg/kg/injection, schedule: Q01DX010 (sc), vehicle: saline",80 % of control
same,T/C,"dose: 12.5 mg/kg/injection, schedule: Q01DX010 (sc), vehicle: saline",120 % of control
same,T/C,"dose: 25.0 mg/kg/injection, schedule: Q01DX010 (sc), vehicle: saline",90 % of control

# From PubChem BioAssay AID206 (DTP/NCI, 2004)
